Row | Structure (SMILES) | melting point [°C]
1 | CCCN(Cc1ccc(-c2ccccc2-c2nnn[nH]2)cc1)c1ccncc1C(=O)O | 195 to 200
2 | COCc1cc(Cl)cc(C(=O)c2nc(OC)cc(OC)n2)c1[N+](=O)[O-] | 130 to 131
3 | S=C1NCC(Cn2cncn2)(c2ccc(Cl)cc2Cl)O1 (stereo not drawn) | 232 to 235
4 | ClCCOc1cccc(OCCCl)c1 | 104 to 105
5 | CC(CCCO)C1CC=C2C3=C(CCC21C)C1(C)CCC(O)C(C)(C)C1CC3 (stereo not drawn) | 203 to 208
6 | Cc1ccccc1-c1c2c(cc3ccc(O)cc13)-c1ccc(O)cc1CO2 | 193 to 196
7 | O=[N+]([O-])c1ccc(S(=O)(=O)NCC2CCN(C[C@H]3COc4ccc(Cl)cc4O3)CC2)cc1 | 147 to 148
8 | COc1ccccc1N1CCN(S(=O)(=O)c2ccc(N)cc2)CC1 | 230 to 232
9 | CCC(=CC(CNC(=O)c1sc(C)nc1C)=NO)C(C)[N+](=O)[O-] (stereo not drawn) | 158 to 159
10 | Cc1nnc2n1-c1ccccc1C(c1ccccc1Cl)=NC2 | 212 to 213
11 | COc1cc2c(cc1OC)CN(CCc1ccc(NC(=O)c3cccc4c(=O)cc(-c5ccccc5)oc34)cc1)CC2 | 135 to 140
12 | CC(C)c1nn(-c2ccc(C(F)(F)F)cn2)cc1CCCCOS(C)(=O)=O | 87 to 89
13 | COc1cc(OC)c2c(C)c(C(C)=O)c(=O)oc2c1 | 166 to 167
14 | CC(=O)Nc1c(F)cc(F)cc1SCC#N | 148 to 149
15 | C=CCOc1ccc2ccc(C(=O)OCC)cc2c1 | 60 to 61
16 | Cn1ncc(/C=C/C(=O)Nc2ccc(CN)cc2)c1-c1ccc(F)cc1 | 201 to 202
17 | N#CC(=C1CCCN1)c1ccc(Cl)cc1 | 135 to 137
18 | O=C1[C@H]2CCC[C@H]2N(C(=O)Cn2cnc3ccccc32)c2ccccc2N1Cc1ccccc1 (relative stereo) | 188 to 189
19 | CNc1ccn2c(C(=O)c3ccc([N+](=O)[O-])c(OC)c3)c(C)c(C(=O)OCc3ccccc3)c2c1 | 228
20 | COc1ccc(CNC(=S)SC)cc1 | 67 to 70
21 | CCCOc1ccc(S(=O)(=O)N2CCNCC2)cc1-c1cc2c(=O)n(C)c(=O)n(CCC)c2[nH]1 | 237
22 | Oc1cc(Cl)cc(Br)c1O | 71 to 73
23 | CN(C)C1(C(=O)c2cc3ccccc3n2C)CCC(c2ccccc2)(N(C)C)CC1 (stereo not drawn) | 109 to 111
24 | Cn1c(C(F)(F)F)cc(=O)n(-c2cc(OCCC3OCCO3)c(Cl)cc2F)c1=O | 125 to 127
25 | CNc1nc(NC)nc(NC)n1 | 133

Row | Structure (SMILES) | melting point [°C]
26 | CC(C)N(C)S(=O)(=O)NC(=O)c1ccc(F)c([N+](=O)[O-])c1 | 164 to 165
27 | O=C(Nc1cc(F)c(Cl)nc1C1CCN(CC=Cc2ccc(Cl)cc2)CC1)c1ccnc(Cl)c1 | 71 to 73
28 | O=C(N[C@H]1CC[C@H](CCN2CCC(c3cccc4c3CCO4)CC2)CC1)c1ccc(F)cc1 | 213
29 | CC(C)C1OC(=Nc2ccccn2)c2c1nc1c(C(F)(F)F)cccc1c2O (stereo not drawn) | 178 to 180
30 | CN(C)S(=O)(=O)c1cc(-c2csc(=Nc3ccc(O)cc3)n2C)ccc1Cl | 188 to 190
31 | CCOCCOCCOc1cc(N2C(=O)C3=C(CCCC3)C2=O)c(F)cc1Cl | 61
32 | CCCCC(CC(=O)O)C(=O)O (stereo not drawn) | 82 to 83
33 | COC(=O)c1cccc2c1OC1CC(N=[N+]=[N-])C(O)C21 (stereo not drawn) | 150 to 152
34 | Cc1c(NC(=O)c2ccc(-c3ccc(F)cc3)cc2)ccc2cc(CN3CCCC3C3CCCCC3)cnc12 (stereo not drawn) | 204 to 205
35 | CC(C)N1CCN(C(=O)COC2c3ccccc3C(=O)N2c2ccc3ccc(Cl)nc3n2)CC1 (stereo not drawn) | 186
36 | COc1cc(C(=O)N2CCN(C(=O)C=C(c3ccccc3)c3ccccc3)CC2)cc(OC)c1OC | 148 to 150
37 | COc1cc2ccc(C(=O)C(C)C)cc2cc1OC | 103 to 105
38 | O=C(O)C1CCc2c(oc3cccc(Cl)c23)C1 (stereo not drawn) | 189 to 190
39 | Cn1ncc2c1-c1c(Oc3ccc4c(c3)OCO4)sc(C#N)c1CC2 | 132 to 134
40 | CCOC(=O)c1nc(-c2cccc(C)c2)cn1C | 176 to 177
41 | COc1cc(Cl)c(N)c(C(=O)O)c1OC | 140 to 142
42 | Cc1cccc(N(CCC(=O)O)Cc2ccc3nc(N)n(Cc4nc(C)ccc4O)c3c2)c1 | 165
43 | CC(C)(C)CC(C)(C)c1cc(CO)c(O)c(CO)c1 | 76 to 77
44 | CN(C)CCNc1cc(CNc2ccccc2C(=O)Nc2cccc(C(F)(F)F)c2)ccn1 | 100
45 | CCn1cnc2c(N)nc(Cl)nc21 | 258 to 262
46 | CC(C)(C)C(=O)NC1CCCNC(=O)C1 (stereo not drawn) | 106 to 107
47 | COc1ccc(C(=O)Cc2ccnc(NC(=O)c3ccccc3)c2)cc1 | 136 to 139
48 | CS(=O)(=O)c1ccc(-c2ccccc2Br)cc1 | 168 to 170
49 | CNC1CCN(c2c(F)cc3c(=O)c(C(=O)O)cn(C4COC4)c3c2F)C1 (stereo not drawn) | 252 to 255
50 | Cc1nc2ccccc2n1-c1ccc(C(=O)O)cc1 | 299 to 300

Row | Structure (SMILES) | melting point [°C]
51 | CC(=O)CCCCC(=O)Nc1ccc(C=CC(=O)O)cc1 | 222 to 225
52 | CN(C)S(=O)(=O)c1cc2c(O)cccc2o1 | 150 to 153
53 | O=C(Cn1ccnc1)c1ccc(-c2ccncc2)cc1 | 144 to 146
54 | Brc1ccc(N2CCOCC2)cc1 | 118 to 120
55 | Cn1ccc2cc(N3Cc4ccc(Br)cc4C3=O)ccc21 | 235 to 237
56 | CC1=NCCN1Cc1ccc(CCNC(=O)c2ccc(-c3ccc(Cl)cc3)cc2)cc1 | 170 to 172
57 | O[C@H](CCl)CN=Cc1ccccc1 | 46
58 | CCOCCOc1ccccc1-c1cc(=O)c2cc(C(=O)O)ccc2o1 | 198 to 200
59 | CN1CCN(C(=O)c2ccccc2C(c2ccc(O)cc2)c2ccc(O)cc2)CC1 | 226 to 231
60 | CC(C=C(N)C(=O)OCc1ccc(Cl)cc1)CP(=O)(O)O (stereo not drawn) | 207 to 208
61 | CS(=O)(=O)c1ccc(-c2cnn(CC(F)(F)F)c(=O)c2-c2ccc(Cl)c(F)c2)cc1 | 174 to 175
62 | COc1ccc(-n2c(=O)cc(C(F)(F)F)n(N)c2=O)cc1 | 176 to 178
63 | CNC(=O)c1ccc(N2CCN(Cc3cc(C)c4c(c3)NC(=O)C(C)O4)CC2)c(Cl)c1 (stereo not drawn) | 232
64 | CCOC(=O)C(C)Oc1ccc(Oc2nc3ccc(Cl)nc3s2)cc1 (stereo not drawn) | 60 to 62
65 | CCOC(=O)Cc1ccc(NC(=O)Nc2ccccc2C(F)(F)F)cc1 | 137 to 139
66 | O=C(O)c1cccc(Cl)c1C[PH](=O)CO (stereo not drawn) | 219 to 220
67 | CCCC(=O)c1cnc2c(C(O)CN(C)C)cccc2c1Nc1ccccc1C (stereo not drawn) | 95 to 96
68 | CCCCCCCC(=O)OCCc1c(-c2ccccc2)nc(N)n2ncnc12 | 89 to 91
69 | NC(=O)Cc1c(-c2ccccc2)nn(-c2ccccc2)c1-c1ccccc1 | 123 to 124
70 | CC(=O)N1CC(=O)C2=C(C1)CN1NC(N3CCOCC3)=NC1=N2 | 310 to 313
71 | COC(=O)c1ccccc1NS(=O)(=O)NC(C)C | 106 to 108
72 | CC(=O)c1cc2ccccc2cc1C(=O)O | 145
73 | Cc1cc(C)c(S(=O)(=O)NC(COc2ccccc2)C(F)(F)F)c(C)c1 (stereo not drawn) | 89 to 91
